Experimental data: patent US10512676B2, “Formulations comprising recombinant acid alpha-glucosidase” (Amicus Therapeutics, Inc., priority 2016, dated 2019)

Assays:
[1] = Plasma miglustat pharmacokinetics, phase 1/2 study in adults with Pompe disease; type: in vivo, human; conditions: for CL/F: arithmetic mean (CV %)
Method: Mean total GAA protein and miglustat PK results from the first 8 Cohort 1 patients through Visit 9 and the first 2 Cohort 3 patients were assessed.

CIMPR = CIMPR (Homo sapiens, UniProt P11717); experiment: CIMPR affinity chromatography (CIMPR column, free M6P gradient); type: binding; conditions: fraction of total enzyme by GAA activity; for rhGAA that did not bind to the CIMPR: eluted prior to addition of M6P
Method: To evaluate the ability of the rhGAA in Myozyme® and Lumizyme®, the only currently approved treatments for Pompe disease, these rhGAA preparations were injected onto a CIMPR column (which binds rhGAA having M6P groups) and subsequently eluted with a free […] gradient. Fractions were collected in 96-well plate and GAA activity assayed by 4MU-α-glucose substrate. The relative amounts of bound and unbound rhGAA were determined based on GAA activity and reported as the fraction of total enzyme.

Gaa KO mice = experiment: Muscle function in Gaa-knockout mice, 12 biweekly administrations (grip strength, wire hang); type: in vivo, mouse; conditions: 12 biweekly administrations, ERT 20 mg/kg (miglustat 10 mg/kg)
Excerpt: In FIG. 18A, * indicates statistically significant compared to Lumizyme® alone (p<0.05, 2-sided t-test). In FIGS. 19A-19G, * indicates statistically significant compared to Lumizyme® alone (p<0.05, multiple comparison using Dunnett's method under one-way ANOVA analysis).

[2] = system: normal and Pompe fibroblast cell lines; experiment: Cellular uptake of rhGAA in normal and Pompe fibroblast cell lines; type: cell-based
Method: The relative cellular uptake of ATB200 and Lumizyme® rhGAA were compared using normal and Pompe fibroblast cell lines. […] After 16-hr incubation, external rhGAA was inactivated with TRIS base and cells were washed 3-times with PBS prior to harvest. Internalized GAA measured by 4MU-α-Glucoside hydrolysis and was graphed relative to total cellular protein and the results appear in FIGS. 11A-B.

[3] = Apparent plasma half-life in vivo

Sequence of CIMPR (P11717 41-2491, species assumed): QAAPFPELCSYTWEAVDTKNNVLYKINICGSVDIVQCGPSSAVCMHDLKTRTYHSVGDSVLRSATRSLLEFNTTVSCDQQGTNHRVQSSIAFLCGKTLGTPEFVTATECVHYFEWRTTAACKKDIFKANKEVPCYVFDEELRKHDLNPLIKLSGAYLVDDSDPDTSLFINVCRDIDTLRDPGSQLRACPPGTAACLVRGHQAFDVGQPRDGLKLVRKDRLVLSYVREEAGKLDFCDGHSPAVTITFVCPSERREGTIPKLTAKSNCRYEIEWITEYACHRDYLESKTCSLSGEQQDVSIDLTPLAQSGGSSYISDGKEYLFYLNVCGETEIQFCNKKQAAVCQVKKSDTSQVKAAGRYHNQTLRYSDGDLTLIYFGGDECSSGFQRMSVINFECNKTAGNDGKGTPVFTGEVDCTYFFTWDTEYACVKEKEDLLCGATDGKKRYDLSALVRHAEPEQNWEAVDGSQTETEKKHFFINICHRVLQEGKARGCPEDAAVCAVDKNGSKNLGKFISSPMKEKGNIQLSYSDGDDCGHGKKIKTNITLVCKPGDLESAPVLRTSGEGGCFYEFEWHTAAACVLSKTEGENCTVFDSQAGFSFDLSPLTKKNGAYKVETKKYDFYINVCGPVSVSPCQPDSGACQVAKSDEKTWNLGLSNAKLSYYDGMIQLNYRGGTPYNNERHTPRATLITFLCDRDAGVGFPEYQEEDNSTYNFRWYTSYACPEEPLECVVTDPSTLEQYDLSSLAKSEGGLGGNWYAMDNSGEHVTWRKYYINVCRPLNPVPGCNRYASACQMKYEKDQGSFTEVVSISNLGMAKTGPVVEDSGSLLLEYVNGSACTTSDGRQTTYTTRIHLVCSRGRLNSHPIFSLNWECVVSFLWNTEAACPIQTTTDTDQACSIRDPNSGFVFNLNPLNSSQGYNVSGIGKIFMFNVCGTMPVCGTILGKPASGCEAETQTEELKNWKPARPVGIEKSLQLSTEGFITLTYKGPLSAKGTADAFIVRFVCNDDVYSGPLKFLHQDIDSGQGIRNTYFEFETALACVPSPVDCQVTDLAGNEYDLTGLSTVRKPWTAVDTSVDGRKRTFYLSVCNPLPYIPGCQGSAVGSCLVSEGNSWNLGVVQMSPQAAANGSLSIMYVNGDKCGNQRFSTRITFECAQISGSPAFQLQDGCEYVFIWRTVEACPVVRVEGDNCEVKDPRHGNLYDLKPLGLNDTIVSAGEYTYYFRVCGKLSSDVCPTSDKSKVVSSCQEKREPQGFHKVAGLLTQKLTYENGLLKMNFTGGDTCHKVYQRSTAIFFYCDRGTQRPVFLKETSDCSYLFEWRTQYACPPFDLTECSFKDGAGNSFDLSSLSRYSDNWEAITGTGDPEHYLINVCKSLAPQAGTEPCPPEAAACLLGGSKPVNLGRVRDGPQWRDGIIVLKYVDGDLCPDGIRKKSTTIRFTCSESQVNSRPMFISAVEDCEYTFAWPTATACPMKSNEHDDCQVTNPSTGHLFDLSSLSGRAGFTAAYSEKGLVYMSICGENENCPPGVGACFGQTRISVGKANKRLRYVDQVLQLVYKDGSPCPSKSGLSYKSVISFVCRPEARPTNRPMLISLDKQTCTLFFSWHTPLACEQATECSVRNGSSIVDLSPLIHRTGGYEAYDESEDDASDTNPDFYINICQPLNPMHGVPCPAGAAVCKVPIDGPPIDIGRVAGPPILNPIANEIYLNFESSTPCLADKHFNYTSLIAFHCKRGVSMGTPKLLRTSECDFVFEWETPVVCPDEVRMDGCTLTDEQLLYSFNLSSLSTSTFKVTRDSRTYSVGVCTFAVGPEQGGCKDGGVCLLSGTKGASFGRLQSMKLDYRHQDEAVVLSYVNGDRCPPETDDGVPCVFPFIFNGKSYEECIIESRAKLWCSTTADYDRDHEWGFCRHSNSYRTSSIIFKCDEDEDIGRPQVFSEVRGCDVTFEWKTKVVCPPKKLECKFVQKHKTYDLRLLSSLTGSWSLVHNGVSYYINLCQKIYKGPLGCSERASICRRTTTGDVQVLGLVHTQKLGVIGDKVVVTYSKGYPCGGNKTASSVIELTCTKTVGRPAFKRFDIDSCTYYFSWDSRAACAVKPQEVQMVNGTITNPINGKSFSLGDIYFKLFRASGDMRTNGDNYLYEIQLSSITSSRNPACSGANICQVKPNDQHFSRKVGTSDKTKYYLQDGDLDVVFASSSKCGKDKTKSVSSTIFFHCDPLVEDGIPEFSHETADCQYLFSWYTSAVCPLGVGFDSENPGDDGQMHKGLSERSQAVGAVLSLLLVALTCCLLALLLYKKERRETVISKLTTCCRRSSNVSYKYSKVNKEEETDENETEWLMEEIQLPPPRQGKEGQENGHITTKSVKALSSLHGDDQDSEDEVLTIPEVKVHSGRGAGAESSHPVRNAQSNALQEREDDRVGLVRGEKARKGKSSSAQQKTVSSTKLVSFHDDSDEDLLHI

CCCCN1C[C@H](O)[C@@H](O)[C@H](O)[C@H]1CO [Miglustat, miglustat]
plasma miglustat kinetics ([1]; 130 mg and 260 mg oral): dose-proportional kinetics | CL/F ([1]; High MD): 10.3 (26.4) L/h | CL/F ([1]; High SD): 10.6 (33) L/h | CL/F ([1]; Low MD): 10.2 (23.9) L/h | CL/F ([1]; Low SD): 10.6 (23) L/h

Lumizyme®: conventional rhGAA product containing alglucosidase alfa, Genzyme
rhGAA that contained M6P / bound CIMPR (eluted with M6P) (CIMPR): 22% | rhGAA that did not bind to the CIMPR (CIMPR): 78% | functional muscle strength (grip strength and wire hang tests) (Gaa KO mice): observed to decline under identical conditions throughout most of the study | concentration that saturates cellular receptors ([2]; 16-hr incubation): about 250 nM | uptake efficiency constant (Kuptake) ([2]; extrapolated, FIG. 11C): 56 nM

Myozyme®: conventional rhGAA product containing alglucosidase alfa, Genzyme
rhGAA that contained M6P / bound CIMPR (eluted with M6P) (CIMPR): 27% | rhGAA that did not bind to the CIMPR (CIMPR): 73%

[199-arginine,223-histidine]prepro-α-glucosidase (human) [alglucosidase alfa, reference compound]
apparent plasma half-life (t1/2) [3]: ~1 h
